# Experimental data published in patent US20220233523A1, “ANTIBIOTIC POTENTIATION FOR NONTUBERCULOUS MYCOBACTERIAL DISEASE” (priority 2019, published 2022).
# Where “and” joins values, the source holds several entries; their conditions need not be identical. Equal entries are not always repeated. Marks after values point to notes of the source that are not given here.
# Columns and labels:
# MAH104 biofilms = assay type: cell-based, Mycobacterium avium subsp hominissuis 104 (MAH104); details: for lower capacity of biofilms to use the substrate compared with planktonic cultures: O.D.590 nm, biofilm vs planktonic; for metabolized by biofilm cultures: Biolog PM1/PM2A plates; for Biofilm (metabolite used): Biolog PM1/PM2A substrates, 7 days at 37° C., end-point assay
# Description: (§1) Metabolic phenotype study was performed with planktonic and biofilm cultures using the 96-well plates PM1 and PM2A (BIOLOG™, Hayward, Calif.). The assays with planktonic cells and biofilms were made at the same time. Each plate contains carbon substrates and one negative control well, in which the bacteria is tested without any substrate. The tests with planktonic and biofilm cultures were performed at the same time and the culture inoculum have the same number of passages. […] The experiments were made as an end-point assay.
# The cultures of biofilms were established for 7 days in regular polystyrene 96 well plates, not in PM Biolog plates, as described above with a minor difference. […] (total of 14 days of biofilm incubated at 37° C.). To obtain spectrophotometric measurements from biofilm cultures (O.D.590 nm), the plate was centrifuged for 20 minutes at 3500 rpm at 20° C., which reduce bacteria interference with the readings, and biofilm supernatant was transferred to a new 96 well plates for O.D.590 nm measurement.
# (§2) Experiments were performed three times as an end-point assay. If planktonic and/or biofilm cultures were able to metabolize a specific metabolite substrate, electrons from NADH reduce the Redox dye in an irreversible reaction that generates a purple color in the PM plate wells. The signal (+) and (−) indicates, respectively, whether a purple color was produced or not. Abiotic reductions of the Redox dye were assessed through adding bacteria-free GN/GP-IF-0a fluid in the wells. Negative control corresponds to the wells without any metabolic substrate.
# [1] = system: intracellular MAH 104 in THP-1 macrophages; test: Treatment of MAH inside human THP-1 macrophages with antibiotics and metabolites (CFU); assay type: cell-based, Mycobacterium avium subsp hominissuis 104 (MAH104); details: for CFU/ml of macrophage lysate, 2 h: 2 h (baseline); for CFU/ml of macrophage lysate, 4 days: clarithromycin 16 μg/ml, amikacin 4 μg/ml, none 8.2 +/− 0.3 × 10^5
# Description: Human THP-1 cell line (TIB-202) (American Type Culture Collection, Manassas, Va.) was cultivated in RPMI-1640 medium with 10% of heat-inactivated fetal bovine serum (FBS, GEMINI B10-PRODUCTS, Sacramento, Calif.), at 37° C. with 5% CO2. The THP-1 cells were maintained in 75 cm^2 tissue culture flasks. The differentiation of THP-1 monocytes into macrophages with PMA (phorbol 12-myristate 13-acetate) (SIGMA ALDRICH) and intracellular antibiotic killing assays were performed as previously described (Rojony et al., Clinical proteomics 2019; 16:39). […] As a negative control, differentiated THP-1 cells were incubated without any antibiotics and with no metabolites. THP-1 cells were replenished with new media containing antibiotics, or no antibiotic, every other day. Cells were lysed at 2 h (baseline) and day 4 and subsequently the number of viable bacteria was determined by CFU counting on 7H10 agar plates.
# MAH 3393 biofilm = test: Amikacin with short-chain fatty acids on biofilm of lung isolate MAH 3393; assay type: cell-based; details: amikacin concentration: 4 mg/ml; untreated 1.0 +/− 0.8 × 10^8
# MAH 3388 biofilm = test: Amikacin with short-chain fatty acids on biofilm of lung isolate MAH 3388; assay type: cell-based; details: amikacin concentration: 4 mg/ml; untreated 9.4 +/− 0.2 × 10^7
# Description: As a negative control, biofilms were incubated only with non-supplemented 7H9 without any antibiotics. […] Subsequently, 100 μl of 0.02% of Triton X-100 (final concentration 0.01%) was added to the established biofilms to mix, dilute and perform CFU analysis with the entire population of biofilms (attached and unattached).
# Biofilms were established from an MAH strain isolated from the lungs of a patient (MAH 3388).
# [2] = system: MAH (strain 104) in established biofilms; test: Treatment of established MAH biofilms with antibiotics and metabolites (CFU); assay type: cell-based, Mycobacterium avium subsp hominissuis 104 (MAH104); details: for numbers of bacteria in biofilms / CFU/ml at 14 days: established biofilms; for numbers of bacteria in biofilms: antibiotic alone or co-treatment; for CFU/ml at 14 days: clarithromycin 16 μg/ml, amikacin 4 μg/ml, 0.05% propionic or butyric acid, 0.2% glycerol, none 4.2 +/− 0.5 × 10^8
# Description: To assess the antibiotic tolerance of MAH biofilms to amikacin (4 μg/ml) and clarithromycin (16 μg/ml), biofilms were formed for 14 days as described herein. […] As a negative control, biofilms were incubated only with non-supplemented 7H9 without any antibiotics. […] Subsequently, 100 μl of 0.02% of Triton X-100 (final concentration 0.01%) was added to the established biofilms to mix, dilute and perform CFU analysis with the entire population of biofilms (attached and unattached).
# Mycobacteria biofilms were first established and then treated or not treated with antibiotics. In parallel, biofilms were also co-treated with antibiotics and the targeted metabolites.
# [3] = system: M. avium 104 static biofilms; test: Static biofilm formation in the presence of metabolites (crystal violet); assay type: cell-based, Mycobacterium avium subsp hominissuis 104 (MAH104); details: 1% and 0.5%, 7H9, 7 days at 37° C., crystal violet
# Description: Static biofilms were used in the present study as described previously (Rose S J, Bermudez L E., Infection and Immunity 2014; 82:405-12). Briefly, mycobacteria were taken from 7H10 agar plates and resuspended in deionized water (10^9 of colony forming units/ml; CFU/ml). The bacterial suspension was then washed 3 times with deionized water to remove any remaining of 7H10 media (3500 rpm for 20 minutes at 20° C.). After washing, the MAH104 were resuspended in 7H9 medium without any carbon sources (OADC, glycerol, tween 20 and tween 80) (non-supplemented 7H9) and suspensions were left alone to allow clumped bacteria to settle. The top half of the suspension was transferred to new tube and adjusted to 1×10^8 CFU/ml, using visual turbidity and optical density. Suspensions were inoculated in 96-well polystyrene plates (BD, Franklin Lakes, N.J.) (100 μl for each well [or 10^7 bacteria per well]) and biofilms were formed at 37° C. for 7 days or for 14 days when indicated. […] The raw O.D. at 570 nm values were discounted from O.D. 570 nm average of blank wells (wells with only 7H9 media).
# (§3) Assays with biofilms incubated with propionic acid, butyric acid, and glycerol were performed to test whether these metabolites affect the formation of biofilms. All the experiments were made in non-supplemented 7H9. The effect of these metabolites was evaluated during biofilm formation, in pre-established biofilms and in M. avium cells pre-attached to polystyrene. To evaluate the effect of targeted metabolites during biofilm formation, mycobacteria suspensions were prepared and inoculated in 96 wells polystyrene plates, as already described, and biofilms were formed in the presence or not of the short-chain fatty acids at different concentrations (1%, 0.5%, 0.1%, 0.05% and 0.01%). For glycerol, only 0.2% was used. The biofilms were formed in 7H9 media at 37° C. for 7 days. For pre-established biofilms, MAH104 was again inoculated in 96 wells plates and biofilms were formed as described herein. […] It was also evaluated whether these metabolites could promote the growth of MAH104 cells present in biofilms through the measurement of […] every 24 hours. Finally, mycobacteria suspension with low density made in 7H9 broth (containing 1×10^6 bacteria/ml) were seeded in 96 wells polystyrene plates and incubated for 7 days at 37° C. […] The growth of pre-attached bacterial cells was followed every 24 hours through O.D.595 nm. The biofilm formation was evaluated by crystal violet.
# The next step was to evaluate the capacity of tested substrates to promote the growth of mycobacteria cells that are present in biofilms. […] MAH 104 cells in the presence of non-supplemented 7H9 were used as a negative control. […]
# sessile MAH104 cells = test: Growth and biofilm formation of pre-attached (sessile) cells in nutrient-limited media; assay type: cell-based, Mycobacterium avium subsp hominissuis 104 (MAH104); details: 0.05% fatty acids in non-supplemented 7H9, 7 days; blank 0.091±0.007
# Description: as §3
# Low mycobacterial cells density (10^6/ml) resuspended in non-supplemented 7H9 media were inoculated in 96-well plates and incubated for 7 days at 37° C. to allow the bacteria to attach into polystyrene. The supernatant was discarded to remove planktonic cells and pre-attached bacterium was incubated for 7 days in nutrient-limited media (non-supplemented 7H9). […] The growth of sessile mycobacteria was followed by O.D.595 nm measurement and biofilm formation was determined through crystal violet (O.D.570 nm), since the multiplication of bacteria cells is linked with the formation of biofilms. No growth was observed when sessile MAH104 cells were cultivated in non-supplemented 7H9 broth. […] It is also important to highlight that the O.D.570 nm value for sessile MAH104 forms incubated with non-supplemented 7H9 (O.D.570 nm=0.11±0.039) had no significant difference in comparison with the blank (O.D.570 nm=0.091±0.007) (P=0.37), showing no biofilm formation. […] FIG. 3A-D.
# [4] = system: planktonic MAH104 cultures; assay type: cell-based, Mycobacterium avium subsp hominissuis 104 (MAH104); details: for Planktonic (metabolite used): Biolog PM1/PM2A plates, 7 days at 37° C., end-point assay
# Description: as §1
# To prepare the inoculum of planktonic cells for PM plates, MAH104 was cultivated in 7H9 medium with 10% OADC and 0.05% of tween20. After the cells reached a mid-logarithmic phase (O.D. at 595 nm=0.3 to 0.6), the cultures were harvested and washed three times with deionized water (centrifugation conditions; 3500 rpm for 20 minutes at 20° C.) and incubated in water for 24 hours at 25° C. as a starvation step. […] A volume of 100 μl of this final bacteria suspension was inoculated into the wells of PM1 and PM2A plates. These plates were incubated for 7 days at 37° C. and after the incubation the O.D. at 590 nm of the plates were measured.
# as §2
# [5] = cited from earlier work
compound,measurement,setting,value
CC(=O)O [Acetic Acid],lower capacity of biofilms to use the substrate compared with planktonic cultures,MAH104 biofilms,2.55 fold
CC(=O)CC(=O)O [Acetoacetic acid],metabolized by biofilm cultures,MAH104 biofilms,unable to metabolize
"NCC[C@H](O)C(=O)N[C@@H]1C[C@H](N)[C@@H](O[C@H]2O[C@H](CN)[C@@H](O)[C@H](O)[C@H]2O)[C@H](O)[C@H]1O[C@H]1O[C@H](CO)[C@@H](O)[C@H](N)[C@H]1O [Amikacin, reference compound]","CFU/ml of macrophage lysate, 2 h",[1],4.5 +/− 0.4 × 10^5 CFU/ml
same,"CFU/ml of macrophage lysate, 4 days",[1],4.8±0.5×10^4 CFU/ml and 4.8 +/− 0.5 × 10^4* (1) CFU/ml
same,"CFU/mL, MAH 3393",MAH 3393 biofilm,5.2 +/− 0.6 × 10^7*(1) CFU/mL
same,"CFU/mL, MAH 3388",MAH 3388 biofilm,5.4 +/− 0.9 × 10^7*(1) CFU/mL
same,numbers of bacteria in biofilms,[2],5.8±0.5×10^7
same,CFU/ml at 14 days,[2],5.8 +/− 0.5 × 10^7*(1) CFU/ml
CCCCCC(=O)O [Caproic acid],biofilm formation with 1% and 0.5% of fatty acid,[3],significant decrease
same,lower capacity of biofilms to use the substrate compared with planktonic cultures,MAH104 biofilms,4.27 fold
same,"CFU/ml of macrophage lysate, 2 h",[1],3.1 +/− 0.4 × 10^5 CFU/ml
same,"CFU/ml of macrophage lysate, 4 days",[1],5.3 +/− 0.4 × 10^5* (1) CFU/ml
same,"O.D.570 nm of sessile MAH104 (crystal violet, biofilm formation)",sessile MAH104 cells,0.177±0.017
same,killing capacity of clarithromycin,"[2]; established M. avium 104 biofilms, 72 hours, FIG. 4A-D",increase
same,CFU/ml at 14 days,[2],6.4 +/− 0.2 × 10^6*(1) CFU/ml
"CC[C@H]1OC(=O)[C@H](C)[C@@H](O[C@H]2C[C@@](C)(OC)[C@@H](O)[C@H](C)O2)[C@H](C)[C@@H](O[C@@H]2O[C@H](C)C[C@H](N(C)C)[C@H]2O)[C@](C)(OC)C[C@@H](C)C(=O)[C@H](C)[C@@H](O)[C@]1(C)O [Clarithromycin, reference compound]","CFU/ml of macrophage lysate, 2 h",[1],4.5 +/− 0.4 × 10^5 CFU/ml
same,"CFU/ml of macrophage lysate, 4 days",[1],3.9±0.3×10^4 CFU/ml and 3.9 +/− 0.3 × 10^4* (1) CFU/ml
same,numbers of bacteria in biofilms,[2],8.9±0.8×10^7
same,CFU/ml at 14 days,[2],8.9 +/− 0.8 × 10^7*(1) CFU/ml
COC(=O)C(C)=O [Methyl Pyruvate],lower capacity of biofilms to use the substrate compared with planktonic cultures,MAH104 biofilms,1.8 fold
CC(=O)C(=O)O [Pyruvic acid],lower capacity of biofilms to use the substrate compared with planktonic cultures,MAH104 biofilms,2.21 fold
O=C(O)CCCCCCCCC(=O)O [Sebacic acid],planktonic O.D.590 nm,"[4]; Biolog plate, end-point",0.210±0.069
same,Biofilm O.D.590 nm,"MAH104 biofilms; Biolog plate, end-point",0.411±0.059
NC[C@H]1O[C@H](O[C@H]2[C@H](O)[C@@H](O[C@H]3O[C@H](CO)[C@@H](O)[C@H](N)[C@H]3O)[C@H](N)C[C@@H]2N)[C@H](N)C[C@@H]1O [tobramycin],concentration in expectorated sputum (Mean),[5]; 10 minutes after delivery of 300 mg by nebulizer,"1,237 μg/g of sputum"
same,concentration in the lung epithelial fluid (induced sputum),[5]; after 300 mg delivered by nebulizer,~128 µg/g
CCC(O)C(=O)O (stereo not drawn) [α-Hydroxy Butyric acid],metabolized by biofilm cultures,MAH104 biofilms,unable to metabolize
CCC(=O)C(=O)O [α-Keto-Butyric acid],metabolized by biofilm cultures,MAH104 biofilms,unable to metabolize
polysorbate 20 [Tween 20],Planktonic (metabolite used),[4],+
same,Biofilm (metabolite used),MAH104 biofilms,+
same,lower capacity of biofilms to use the substrate compared with planktonic cultures,MAH104 biofilms,5.4 fold
polysorbate 40 [Tween 40],Planktonic (metabolite used),[4],+
same,Biofilm (metabolite used),MAH104 biofilms,+
same,lower capacity of biofilms to use the substrate compared with planktonic cultures,MAH104 biofilms,3.8 fold
polysorbate 80 [Tween 80],Planktonic (metabolite used),[4],+
same,Biofilm (metabolite used),MAH104 biofilms,+
same,lower capacity of biofilms to use the substrate compared with planktonic cultures,MAH104 biofilms,3.45 fold
